Source: US8410309B2, “Phenoxy carboxylic acid compounds and compositions for delivering active agents” (Emisphere Technologies, Inc., priority 1999, dated 2013)
Values joined by “and” are separate entries in the source; they are usually repeats but may differ in a detail not shown here. Equal entries are not always repeated. Blank lines part the entries; values can stand above or below the compound they belong to.

Assays:
[1] = Insulin oral delivery, serum human insulin by ELISA; details: rats
Experimental: Oral dosing (PO) compositions of delivery agent compound and human zinc insulin (minimum 26 IU/mg available from Calbiochem—Novabiochem Corp, La Jolla, Calif.) were prepared in deionized water. […] The pH was adjusted to about 7 to 8.5 with NaOH or HCl. […] The final delivery agent compound dose, insulin dose and dose volume amounts are listed below in Table 8.
(§1) The typical dosing and sampling protocols were as follows.
Serum insulin levels were determined with an Insulin ELISA Test Kit (Kit # DSL-10-1600 from Diagnostic Systems Laboratories, Inc., Webster, Tex.), modifying the standard protocol in order to optimize the sensitivity and linear range of the standard curve for the volumes and concentrations of the samples used in the present protocol. […] The five values for each time point were averaged and the results plotted as serum insulin concentration versus time.

[2] = Insulin pulmonary delivery, serum insulin by ELISA, ratio to insulin-alone control; type: in vivo, Sprague-Dawley rats; details: rats
Experimental: Dosing compositions of delivery agent compound and human insulin in water were prepared. Typically, to 1.5 mg of delivery agent compound was added deionized water to bring the volume to 1.0 ml, and the solution was vortexed. […] The pH was adjusted to between about 7.0 to 8.5 with NaOH or HCl. […] The final delivery agent compound dose, insulin dose and volume dose amounts are listed below in Table 9.
The typical dosing and sampling protocols were as follows. […] A control group of five animals was dosed insulin alone. A tracheal instillator for rodents, equipped with light (available from Penn Century, Inc., Pittsburgh, Pa.) was filled with dosing solution and inserted down the throat until the needle went into the trachea (confirmed visually). The dosing solution was administered by pressing the plunger.
Blood samples from each animal were collected serially from the tail artery, typically at 5, 15, 30, 60 and 120 minutes after dosing. […] The ratio of the area under the curve (AUC) for the test group versus that of the control group is reported below. The ratio of the maximum serum insulin concentration (Cmax) for the test group versus that of the control group is also reported below.

[3] = Salmon calcitonin (sCT) oral delivery, serum sCT by EIA; details: rats, delivery agent compound dose 150 mg/kg, sCT dose 30 μg/kg
[4] = Daptomycin oral delivery, plasma daptomycin by HPLC; type: in vivo, Sprague-Dawley rats; details: rats, delivery agent compound dose 200 mg/kg, daptomycin dose 50 mg/kg, volume dose 1 mL/kg
Experimental: Dosing solutions containing a delivery agent compound and daptomycin (Cubist Pharmaceuticals, Cambridge, Mass.) were prepared in 0.9% normal saline. […] This mixture was vortexed and placed in a sonicator (about 37° C.). The pH was adjusted to about 7.0-7.5 with aqueous HCl or NaOH. […] The mixture was vortexed to produce a uniform solution, also using sonication if necessary. The delivery agent compound solution was mixed with daptomycin from a stock solution (200 mg daptomycin/mL in 0.9% normal saline and the pH adjusted, if necessary, to between 6.0-7.0 with NaOH or HCl). The stock solution was stored frozen (−20° C.) wrapped in foil, then thawed and warmed gradually to about 25° C. before using. The delivery agent-daptomycin mixture was vortexed at low speed to produce a uniform solution. The pH was adjusted to about 7.0-7.5 with aqueous NaOH. The solution was then diluted with 0.9% normal saline to the desired volume (usually 2.0 ml) and concentration and stored wrapped in foil before use.
as §1
Heparinized rat blood samples were collected via the ventral tail artery, typically at 0.25, 0.5, 0.75, 1.0, 2.0, and 4.0 hours after dosing, and stored on ice. Blood samples were then spun (centrifuged) at 11,500 rpm for 4 minutes at 4° C. to obtain the plasma (supernatant), which was stored at −70° C. The plasma daptomycin concentrations were measured by isocratic reversed phase HPLC, keeping samples at 4° C. during analysis. Blank plasma studies show baseline values of zero.
Daptomycin blood concentrations results from the individual animals in each dosage group were averaged for each time point.

[5] = Interferon oral delivery, serum IFN by immunoassay; type: in vivo, Sprague-Dawley rats; details: rats, delivery agent compound 200 mg/kg, IFN 1 mg/kg, 1 ml/kg
Experimental: Dosing solutions of delivery agent compound and human interferon (IFN) were prepared in deionized water. […] This mixture was vortexed and placed in a sonicator (about 37° C.). The pH was adjusted to about 7.0 to 8.5 with aqueous NaOH. The mixture was vortexed to produce a uniform suspension or solution, also using sonication and heat if necessary.
as §1
Serum IFN concentrations were quantified using Cytoscreen Immunoassay Kit for human IFN-alpha (catalog # KHC4012 from Biosource International, Camarillo, Calif.). Previous studies indicated baseline values of about zero.

[6] = Recombinant human growth hormone (rhGH) oral delivery, serum rhGH by immunoassay; details: oral gavage, rats, delivery agent compound 200 mg/kg, rhGH 3 mg/kg
[7] = pulmonary, volume 0.4 ml/kg, delivery agent compound 0.03 mg/kg, insulin 0.3 mg/kg (so in the source)

SMILES: O=C(O)CCCCCOc1cccc(O)c1 [Compound 45]
Mean Peak Serum [INS] ± SD ([1]; delivery agent compound 200 mg/kg, insulin 0.5 mg/kg, 1 ml/kg): 70.32 ± 149.1 μU/ml | Mean Ratio of AUC for insulin + compound versus AUC for insulin alone [2, 7]: 1.01 | Mean Peak Serum sCT (pg/ml ± SD) (SE) ([3]; dose volume 1 (ml), 150 mg/kg): 125 ± 187 pg/mL and 172 ± 158 pg/mL

SMILES: O=C(O)CCCCCCCCCOc1ccc(O)cc1 [Compound 48]
Cmax (serum insulin) [2, 7]: 135.56 ± 80.96 μU/ml | Mean Ratio of AUC for insulin + compound versus AUC for insulin alone [2, 7]: 1.30 | Mean Peak Serum sCT (pg/ml ± SD) (SE) ([3]; dose volume 3 (ml)): 95 ± 156 pg/mL | Mean Peak Serum sCT (pg/ml ± SD) (SE) ([3]; dose volume 4 (ml)): 35 ± 49 pg/mL

SMILES: O=C(O)CCCCCOc1ccc(O)cc1 [Compound 49]
Mean Peak Serum [INS] ± SD ([1]; delivery agent compound 100 mg/kg, insulin 3 mg/kg, 0.5 ml/kg): 335.7 ± 227.05 μU/ml | Mean Ratio of AUC for insulin + compound versus AUC for insulin alone [2, 7]: 0.54

SMILES: CC(=O)c1cc(O)ccc1OCCCCCCCC(=O)O [Compound 57, (4-hydroxy-2-acetylphenyl)-8-oxyoctanoic acid]
Mean Peak Serum [INS] ± SD ([1]; delivery agent compound 200 mg/kg, insulin 3 mg/kg, 1 ml/kg): 3322 ± 2721 μU/ml | Mean plasma Cmax [daptomycin] ± SD [4]: 8590 ± 4210 ng/mL

SMILES: CCC(=O)c1ccc(OCCCCCCCC(=O)O)cc1 [Compound 63]
Mean Peak Serum [INS] ± SD ([1]; delivery agent compound 100 mg/kg, insulin 3 mg/kg, 1 ml/kg): 7.843 ± 8.527 μU/ml | Cmax (serum insulin) ([2]; Table 9 pulmonary delivery, volume 1 ml/kg, delivery agent compound 3 mg/kg, insulin 100 mg/kg (so in the source)): 7.843 μU/ml

Continued, in another order:

Mean Peak Serum [IFN] ± SD [5]: 3.4451 ± 4.5 ng/mL | Mean Peak Serum sCT (pg/ml ± SD) (SE) ([3]; dose volume 1 (ml), 150 mg/kg): 142 ± 142 pg/mL and 256 ± 158 pg/mL | Mean Peak Serum sCT (pg/ml ± SD) (SE) ([3]; dose volume 2 (ml)): 681 ± 419 pg/mL | Mean Peak Serum [rhGH] ([6]; volume dose 1 ml): 15 ng/mL and 14.7 ng/mL
SMILES: O=C(O)c1ccc(COc2ccc(O)cc2)cc1 [Compound 67]
Cmax (serum insulin) ([2]; pulmonary, volume 0.4 ml/kg, delivery agent compound 0.03 mg/kg, insulin 0.06 mg/kg (so in the source)): 82.23 ± 47.16 μU/ml and 70.85 ± 36.24 μU/ml | Cmax (serum insulin) ([2]; pulmonary, volume 0.4 ml/kg, delivery agent compound 0.03 mg/kg, insulin 0.15 mg/kg (so in the source)): 84.40 ± 15.06 μU/ml and 91.20 ± 37.30 μU/ml | Cmax (serum insulin) [2, 7]: 66.04 ± 47.42 μU/ml and 92.14 ± 36.17 μU/ml and 115.04 ± 68.23 μU/ml

Cmax (serum insulin) [2, 7]: 57.82 ± 35.28 μU/ml | Mean Peak Serum sCT (pg/ml ± SD) (SE) ([3]; dose volume 2 (ml)): 302 ± 246 pg/mL | Mean Peak Serum [rhGH] ([6]; volume dose 3 ml): 5.94 ng/mL
SMILES: O=C(O)CCCCCCCOc1ccc(F)cc1F [Compound 71]

Cmax (serum insulin) [2, 7]: 80.56 ± 30.51 μU/ml | Mean Peak Serum [rhGH] ([6]; volume dose 1 ml): 0 ng/mL
SMILES: O=C(O)c1ccc(COc2ccccc2Cl)cc1 [Compound 78]
